# Results: publication PMC8343220, “The selectivity of α‐adrenoceptor agonists for the human α1A, α1B, and α1D‐adrenoceptors” (Pharmacology Research & Perspectives, 2021)
# Where two headings read alike, the source gives them in different places.
# Columns and labels:
# [1] = tested on: parental CHO cell line without any transfected receptors; assay: ERK1/2‐phosphorylation, parent CHO cells without transfected receptors; assay type: cell-based, Chinese hamster; conditions: Cricetulus griseus, CHO; read-out: ERK1/2-phosphorylation % PDBu at 100μM
# [2] = tested on: parental CHO cell line without any transfected receptors; assay: Intracellular calcium mobilization, parent CHO cells without transfected receptors; assay type: cell-based, Chinese hamster; conditions: Cricetulus griseus; CHO cells without transfected receptors; response at maximum concentration used (c2), as % of ionomycin (10μM) response; mean ± s.e.m.; read-out: Intracellular calcium release % ionomycin
# [3] = molecular target: T1, human α1D‐adrenoceptor (full length) (Homo sapiens, UniProt P25100); assay: ERK1/2‐phosphorylation (Surefire Alphascreen), CHO‐α1D cells; assay type: cell-based; conditions: for EC50: read-out: ERK1/2‐phosphorylation Log EC50 (converted)
# T1 construct: human α1D‐adrenoceptor (full length) were used; expressed in transfected cells; host or cells: CHO-K1
# T1 sequence (P25100 1-572): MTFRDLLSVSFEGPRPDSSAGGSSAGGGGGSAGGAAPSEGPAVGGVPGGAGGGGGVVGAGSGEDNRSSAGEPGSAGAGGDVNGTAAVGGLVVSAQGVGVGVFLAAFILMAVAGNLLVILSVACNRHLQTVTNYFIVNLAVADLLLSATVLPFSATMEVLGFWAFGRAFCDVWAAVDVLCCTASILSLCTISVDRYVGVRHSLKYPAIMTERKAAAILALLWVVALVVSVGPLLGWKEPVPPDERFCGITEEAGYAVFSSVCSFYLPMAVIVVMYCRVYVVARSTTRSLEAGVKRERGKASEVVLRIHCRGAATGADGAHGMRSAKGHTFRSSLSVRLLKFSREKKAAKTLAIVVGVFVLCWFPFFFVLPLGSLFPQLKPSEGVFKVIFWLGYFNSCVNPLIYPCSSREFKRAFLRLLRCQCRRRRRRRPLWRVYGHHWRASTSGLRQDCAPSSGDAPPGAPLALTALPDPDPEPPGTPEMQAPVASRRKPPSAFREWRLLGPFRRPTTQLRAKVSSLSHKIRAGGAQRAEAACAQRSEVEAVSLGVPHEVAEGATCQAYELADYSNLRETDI
# [4] = molecular target: T2, human α1B‐adrenoceptor (Homo sapiens, UniProt P35368); assay: ERK1/2‐phosphorylation (Surefire Alphascreen), CHO‐α1B cells; assay type: cell-based; conditions: for EC50: read-out: ERK1/2‐phosphorylation Log EC50 (converted)
# T2 construct: expressed in transfected cells; host or cells: CHO-K1
# T2 sequence (P35368 1-520): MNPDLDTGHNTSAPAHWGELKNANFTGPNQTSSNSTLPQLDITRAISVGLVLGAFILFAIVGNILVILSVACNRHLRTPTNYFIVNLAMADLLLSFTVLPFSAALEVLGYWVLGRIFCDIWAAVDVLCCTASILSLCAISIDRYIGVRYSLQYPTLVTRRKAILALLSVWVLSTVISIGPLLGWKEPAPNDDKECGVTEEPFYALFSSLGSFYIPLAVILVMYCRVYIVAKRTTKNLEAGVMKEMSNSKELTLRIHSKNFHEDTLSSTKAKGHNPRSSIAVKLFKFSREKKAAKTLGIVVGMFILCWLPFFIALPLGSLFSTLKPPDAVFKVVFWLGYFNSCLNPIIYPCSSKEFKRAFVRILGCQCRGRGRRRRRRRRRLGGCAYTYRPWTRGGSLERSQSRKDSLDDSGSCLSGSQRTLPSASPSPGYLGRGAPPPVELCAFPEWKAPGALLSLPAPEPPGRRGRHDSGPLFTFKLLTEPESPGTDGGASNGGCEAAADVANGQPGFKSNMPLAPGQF
# [5] = molecular target: T1, human α1D‐adrenoceptor (full length); assay: Intracellular free calcium mobilization, CHO‐α1D cells; assay type: cell-based
# [6] = molecular target: T3, human α1A‐adrenoceptor (Homo sapiens, UniProt P35348); assay: ^3H‐prazosin whole‐cell radioligand binding, CHO‐α1A cells
# T3 construct: expressed in transfected cells; host or cells: CHO-K1
# T3 sequence (P35348 1-466): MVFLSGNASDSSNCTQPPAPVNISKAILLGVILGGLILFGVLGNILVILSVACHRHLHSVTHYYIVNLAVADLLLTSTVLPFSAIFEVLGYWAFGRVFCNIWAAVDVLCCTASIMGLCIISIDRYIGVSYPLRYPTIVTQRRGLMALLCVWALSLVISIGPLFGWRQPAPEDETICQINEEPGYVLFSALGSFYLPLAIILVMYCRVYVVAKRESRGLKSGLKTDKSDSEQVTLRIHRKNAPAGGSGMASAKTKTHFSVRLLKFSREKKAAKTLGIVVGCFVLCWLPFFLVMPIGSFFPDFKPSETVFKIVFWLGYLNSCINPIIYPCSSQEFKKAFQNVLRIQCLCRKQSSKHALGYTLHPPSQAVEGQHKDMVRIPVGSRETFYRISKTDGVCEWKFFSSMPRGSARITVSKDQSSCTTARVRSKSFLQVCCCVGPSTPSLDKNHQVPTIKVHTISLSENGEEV
# [7] = molecular target: T2, human α1B‐adrenoceptor; assay: ^3H‐cAMP accumulation, CHO‐α1B cells; assay type: cell-based; conditions: CHO‐α1B cells
# [8] = tested on: parental CHO cell line without any transfected receptors; assay: Forskolin‐stimulated cAMP accumulation, parent CHO cells without transfected receptors; assay type: cell-based, Chinese hamster; conditions: CHO cells without transfected receptors; response at 100μM only, EC50 not obtainable; % of forskolin-stimulated cAMP
# [9] = molecular target: T2, human α1B‐adrenoceptor; assay: Intracellular free calcium mobilization, CHO‐α1B cells; assay type: cell-based; conditions: for EC50: read-out: Intracellular calcium release Log EC50 (converted)
# [10] = molecular target: T3, human α1A‐adrenoceptor; assay: ERK1/2‐phosphorylation (Surefire Alphascreen), CHO‐α1A cells; assay type: cell-based; conditions: for EC50: read-out: ERK1/2‐phosphorylation Log EC50 (converted)
# [11] = molecular target: T3, human α1A‐adrenoceptor; assay: Intracellular free calcium mobilization, CHO‐α1A cells; assay type: cell-based; conditions: for EC50: read-out: Intracellular calcium release Log EC50 (converted)
# [12] = molecular target: T1, human α1D‐adrenoceptor (full length); assay: ^3H‐prazosin whole‐cell radioligand binding, CHO‐α1D cells
# [13] = molecular target: T2, human α1B‐adrenoceptor; assay: ^3H‐cAMP accumulation in the presence of 10 μM forskolin, CHO‐α1B cells; assay type: cell-based; conditions: CHO‐α1B cells
# [14] = molecular target: T3, human α1A‐adrenoceptor; assay: ^3H‐cAMP accumulation in the presence of 10 μM forskolin, CHO‐α1A cells; assay type: cell-based; conditions: CHO‐α1A cells
# [15] = molecular target: T2, human α1B‐adrenoceptor; assay: ^3H‐prazosin whole‐cell radioligand binding, CHO‐α1B cells
# [16] = molecular target: T3, human α1A‐adrenoceptor; assay: ^3H‐cAMP accumulation, CHO‐α1A cells; assay type: cell-based; conditions: CHO‐α1A cells
# [17] = molecular target: T1, human α1D‐adrenoceptor (full length); assay: ^3H‐cAMP accumulation, CHO‐α1D cells; assay type: cell-based; conditions: cAMP accumulation without forskolin
# [18] = molecular target: T1, human α1D‐adrenoceptor (full length); assay: ^3H‐cAMP accumulation in the presence of 10 μM forskolin, CHO‐α1D cells; assay type: cell-based; conditions: CHO‐α1D cells
# [19] = fold increase of the forskolin response
smiles,measurement,setting,value
Cc1cccc(C(C)c2cnc[nH]2)c1C (centres unmarked) [Medetomidine],Emax at 100 µM,[1],7.9 ± 3.8%
same,Emax,[2],11.7 ± 2.4%
same,ERK1/2‐phosphorylation % PDBu,[3],22.6 ± 5.1%
same,EC50,[3],7.24 µM
same,ERK1/2‐phosphorylation % PDBu,[4],55.2 ± 5.3%
same,EC50,[4],0.138 µM
same,Intracellular calcium release % Ionomycin at 100 µM,[5],11.5 ± 2.3%
same,Affinity selectivity ratio α1A vs α1B,[6],6.2 fold
same,Kd,"[6]; Log KD α1A, ^3H‐prazosin whole cell binding",2.34 µM
same,cAMP accumulation % forskolin,[7]; % forskolin maximum response,4.6 ± 0.9%
same,EC50,[7]; read-out: cAMP accumulation Log EC50 (converted),0.115 µM
same,cAMP accumulation (in presence of forskolin) % forskolin-stim cAMP at 100μM,[8],88.4 ± 3.2%
same,Intracellular calcium release % ionomycin,[9],43.0 ± 3.4%
same,Log efficacy ratio KD /EC50,[9],2.09
same,EC50,[9],0.117 µM
same,ERK1/2‐phosphorylation % PDBu,[10],85.8 ± 3.3%
same,EC50,[10],0.0316 µM
same,Intracellular calcium release % ionomycin,[11],57.2 ± 1.8%
same,Log efficacy ratio KD /EC50,[11],2.06
same,EC50,[11],0.0204 µM
same,Affinity selectivity ratio α1A vs α1D,[12],1.1 fold
same,Affinity selectivity ratio α1B vs α1D,[12],6.8 fold
same,Kd,[12]; 3H‐prazosin binding Log KD,2.14 µM
same,Kd,"[12]; Log KD α1D, ^3H‐prazosin whole cell binding",2.14 µM
same,cAMP accumulation (in presence of forskolin) Fold increase,[13]; [19],1.52 ± 0.04 fold
same,EC50,"[13]; in presence of forskolin, read-out: cAMP accumulation (in presence of forskolin) Log EC50 (converted)",0.0933 µM
same,EC50,"[14]; 10 μM forskolin, read-out: cAMP accumulation (in presence of forskolin) Log EC50 (converted)",0.126 µM
same,cAMP accumulation (in presence of forskolin) Fold increase,[14]; [19],2.12 ± 0.09 fold
same,Kd,"[15]; Log KD α1B, ^3H‐prazosin whole cell binding",14.5 µM
same,Kd,"[15]; Log KD, ^3H‐prazosin binding",14.5 µM
same,EC50,"[16]; 5 h, read-out: cAMP accumulation Log EC50 (converted)",0.646 µM
same,cAMP accumulation % forskolin,[16]; % of 10 µM forskolin response,46.3 ± 5.2%
COc1nc(C)nc(Cl)c1N=C1NCCN1 [Moxonidine],Emax at 100 µM,[1],3.1 ± 1.9%
same,EC50,"[3]; CHO‐α1D cells, log values given negative",14.8 µM
same,ERK1/2‐phosphorylation % PDBu,"[3]; CHO‐α1D cells, maximal response as % of PDBu",16.4 ± 1.6%
same,EC50,"[4]; CHO‐α1B cells, for bi‐phasic responses the initial stimulatory part",0.912 µM
same,ERK1/2‐phosphorylation % PDBu,"[4]; CHO‐α1B cells, maximal response as % PDBu response, for bi‐phasic responses the initial stimulatory part",102.0 ± 6.5%
same,cAMP Log EC50,[17],No response
same,Log efficacy ratio KD /EC50,"[5]; CHO‐α1D cells, intrinsic efficacy ratio, binding KD / calcium EC50",1.25
same,EC50,"[5]; CHO‐α1D cells, log values given negative, read-out: Intracellular calcium release Log EC50 (converted)",6.17 µM
same,Intracellular calcium release % ionomycin,"[5]; CHO‐α1D cells, maximal response as % of 10 µM ionomycin",16.6 ± 2.9%
same,Kd,"[6]; CHO‐α1A cells, given as log KD (negative), mean ± SEM",28.8 µM
same,Affinity selectivity ratio α1A vs α1B,[6]; higher affinity for α1A than α1B,11.7 fold
same,Affinity selectivity ratio α1A vs α1D,[6]; higher affinity for α1A than α1D,3.8 fold
same,EC50,"[9]; CHO‐α1B cells, given as log EC50 (negative numbers)",0.324 µM
same,Log efficacy ratio KD /EC50,"[9]; CHO‐α1B cells, intrinsic efficacy ratio, KD from binding / EC50 calcium, log",3.02
same,Intracellular calcium release % ionomycin,"[9]; CHO‐α1B cells, maximal response as % of 10 µM ionomycin response",57.9 ± 2.1%
same,EC50,"[10]; CHO‐α1A cells, 2–4 min, ^a bi‐phasic: initial stimulatory part, ^b also active in parent CHO cells",0.141 µM
same,ERK1/2‐phosphorylation % PDBu,"[10]; CHO‐α1A cells, % of 10 µM PDBu, ^a bi‐phasic: initial stimulatory part",78.0 ± 7.2%
same,Log efficacy ratio KD /EC50,"[11]; CHO‐α1A cells, binding KD and calcium EC50",1.97
same,EC50,"[11]; CHO‐α1A cells, given as log EC50 (negative)",0.309 µM
same,Intracellular calcium release % ionomycin,"[11]; CHO‐α1A cells, maximal response as % of 10 µM ionomycin",59.3 ± 4.5%
same,cAMP (in presence of forskolin) Fold increase,[18]; [19],No response
same,cAMP (in presence of forskolin) Log EC50,"[18]; in presence of forskolin, log values given negative",No response
same,Kd,"[12]; 3H‐prazosin binding Log KD, CHO‐α1D cells, whole‐cell binding (from Table 1), log values given negative",110 µM
same,Kd,"[12]; CHO‐α1D cells, given as log KD (negative), mean ± SEM, 'early plateau' = specific binding not fully inhibited",110 µM
same,Affinity selectivity ratio α1B vs α1D,[12]; higher affinity for α1D than α1B,3.1 fold
same,Kd,"[15]; CHO‐α1B cells, given as log KD (negative), mean ± SEM",339 µM
same,Kd,"[15]; Log KD, ^3H‐prazosin binding, CHO‐α1B cells, whole‐cell binding (from Table 1), given as log KD (negative numbers)",339 µM
